Our source for the LDH release cytotoxicity values is the supplement of paper PMC7840683.

Where a name gives a salt, the structure may show the parent alone. ± gives the standard deviation of the averaged measurements.

This assay deals with HepaRG. In words: LDH release cytotoxicity, % of total lysis control; higher = more cytotoxic. The settings on record: 48 h. In outline: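 Duplicate wells of single-lot HepaRG cells, grown on collagen I-coated 96-well plates, received eight-point half-log series of test chemicals with 100 µM as the top concentration. Exposure lasted 48 h in serum-free induction medium with 0.5% DMSO, while total lysis wells received 0.1% Triton X. Resorufin fluorescence (CytoTox-ONE, Tecan Safire) was used to quantify LDH leaked into 50 µL of spent medium. Values for percent cytotoxicity were normalized to on-plate vehicle and total lysis controls and averaged across the duplicates.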
(In general: LDH leaks from cells whose membrane has failed.)

For `Cc1cc(Cl)ccc1OCC(=O)O` [MCPA], the LDH release cytotoxicity is -0.121 ± 0.17% (0.03162 µM); -0.914 ± 0.53% (0.1 µM); -0.511 ± 0.28% (0.3162278 µM); -0.689 ± 0.68% (1 µM); -0.578 ± 0.24% (3.16228 µM); -0.154 ± 0.47% (10 µM). Moreover, the LDH release cytotoxicity came out at 0.865 ± 0.061% (31.6228 µM) and 1.22 ± 0.86% (100 µM).

Take `C[N+](C)(C)CC1CO1` (stereo not given) [Glycidyl trimethylammonium chloride]: the LDH release cytotoxicity is -0.794 ± 0.83% (0.03162 µM); -0.64 ± 0.72% (0.1 µM); -0.926 ± 0.041% (0.3162278 µM); -1.32 ± 0.64% (1 µM); -1.48 ± 0.5% (3.16228 µM); -0.844 ± 0.16% (10 µM). The LDH release cytotoxicity by setting is: (31.6228 µM) -0.342 ± 0.33%; (100 µM) 0.366 ± 0.66%.

On to `Cc1ccc(N=C=O)cc1N=C=O` [Toluene 2,4-diisocyanate], for which the LDH release cytotoxicity is, setting by setting: (0.03162 µM) -1.18 ± 0.59%; (0.1 µM) -1.26 ± 0.15%; (0.3162278 µM) -1.96 ± 0.45%; (1 µM) -1.55 ± 0.2%; (3.16228 µM) -1.52 ± 0.076%; (10 µM) -0.759 ± 0.27%. The LDH release cytotoxicity was determined as 4.408 ± 0.042% (31.6228 µM) and 11.5 ± 1.5% (100 µM).

With `CCn1nc(C)c2c1C(=O)NCC(c1ccc(O)cc1)=N2`, the LDH release cytotoxicity by setting is: (0.03162 µM) -0.976 ± 1.2%; (0.1 µM) -1.16 ± 0.44%; (0.3162278 µM) -0.653 ± 0.074%; (1 µM) -0.0547 ± 1%; (3.16228 µM) 0.209 ± 0.17%; (10 µM) 0.546 ± 0.34%. Moreover, the LDH release cytotoxicity was 1.6 ± 0.75% (31.6228 µM) and 3.89 ± 0.91% (100 µM).

For the compound `CCCCC(CC)CN1C(=O)C2C3C=CC(C3)C2C1=O` (stereo not given) [Octylbicycloheptenedicarboximide], the LDH release cytotoxicity reads like this: (0.03162 µM) 0.282 ± 1.1%; (0.1 µM) -0.366 ± 0.72%; (0.3162278 µM) -0.0268 ± 1.1%; (1 µM) -1.18 ± 0.3%; (3.16228 µM) -0.584 ± 0.76%; (10 µM) -0.999 ± 0.41%. Further, the LDH release cytotoxicity is -1.23 ± 0.39% (31.6228 µM) and 8.34 ± 1% (100 µM).

With `C=C(C)C(=O)[O][Sn]([CH2]CCC)([CH2]CCC)[CH2]CCC` [Tributyltin methacrylate], the LDH release cytotoxicity (0.03162 µM) was -1.27 ± 0.67%; the LDH release cytotoxicity (0.1 µM) is -1.27 ± 0.21%; the LDH release cytotoxicity (0.3162278 µM) is -0.912 ± 0.44%; the LDH release cytotoxicity (1 µM) is -1.5 ± 0.47%; the LDH release cytotoxicity (3.16228 µM) was 37.9 ± 0.45%; the LDH release cytotoxicity (10 µM) turned out to be 56.38 ± 0.14%. Further, the LDH release cytotoxicity was found to be 55.58 ± 0.35% (31.6228 µM) and 59.2 ± 1.2% (100 µM).

As for `Cc1cccc(N)c1N` [2,3-Diaminotoluene], the LDH release cytotoxicity (0.03162 µM) was -0.0536 ± 0.59%; the LDH release cytotoxicity (0.1 µM) is -0.722 ± 0.31%; the LDH release cytotoxicity (0.3162278 µM) is 0.216 ± 0.21%; the LDH release cytotoxicity (1 µM) was -0.468 ± 0.4%; the LDH release cytotoxicity (3.16228 µM) is -0.351 ± 0.98%; the LDH release cytotoxicity (10 µM) came out at 0.016 ± 0.52%. Besides, the LDH release cytotoxicity was -0.572 ± 0.99% (31.6228 µM) and 0.619 ± 0.97% (100 µM).

Turning to `Clc1ccccc1-c1nnc(-c2ccccc2Cl)nn1` [Clofentezine], the LDH release cytotoxicity is, setting by setting: (0.03162 µM) -1.43 ± 0.094%; (0.1 µM) -0.835 ± 0.41%; (0.3162278 µM) -0.246 ± 0.27%; (1 µM) -1.9 ± 0.72%; (3.16228 µM) -0.967 ± 0.31%; (10 µM) -1.22 ± 0.43%. The LDH release cytotoxicity reads like this: (31.6228 µM) -0.912 ± 0.23%; (100 µM) 0.757 ± 0.29%.

`CN(C)CCOC(c1ccccc1)c1ccccc1` [Diphenhydramine hydrochloride]: the LDH release cytotoxicity (0.03162 µM) was -0.0757 ± 0.11%; the LDH release cytotoxicity (0.1 µM) was -1.04 ± 0.17%; the LDH release cytotoxicity (0.3162278 µM) is -0.977 ± 0.34%; the LDH release cytotoxicity (1 µM) is -1.8 ± 1.1%; the LDH release cytotoxicity (3.16228 µM) is -1.62 ± 0.031%; the LDH release cytotoxicity (10 µM) was -0.793 ± 0.26%. Further, the LDH release cytotoxicity (31.6228 µM) is -0.772 ± 0.23% and the LDH release cytotoxicity (100 µM) came out at 1.1 ± 0.12%.

In the case of `O=C(Nc1ccccc1)Nc1ccnc(Cl)c1` [Forchlorfenuron], the LDH release cytotoxicity by setting is: (0.03162 µM) -0.561 ± 0.058%; (0.1 µM) -0.953 ± 0.64%; (0.3162278 µM) -0.719 ± 0.22%; (1 µM) -0.995 ± 0.79%; (3.16228 µM) -0.25 ± 0.84%; (10 µM) -0.369 ± 0.16%. The LDH release cytotoxicity by setting is: (31.6228 µM) 6.54 ± 0.27%; (100 µM) 61.5 ± 5.7%.
